Measurements: the NIST ThermoML archive (doi:10.1016/j.fluid.2018.10.024)

How the values were obtained:
[1] = xn = mol fraction of the nth substance listed; conditions: 101 kPa, Liquid; for mass density: Vibrating tube method; for viscosity: Capillary tube (Ostwald / Ubbelohde) method
[2] = refractive index (Na D-line) (dimensionless); xn = mol fraction of the nth substance listed; conditions: 101 kPa, Liquid, Standard Abbe refractometry

ClC(Cl)Cl [trichloromethane] + CO
Conditions	mass density, [1] [kg/m3]	refractive index, [2]	viscosity, [1] [mPa·s]
298.15 K, x2 = 0	–	1.4422	–
298.15 K, x2 = 0.0999	–	1.4379	–
298.15 K, x2 = 0.2012	–	1.4312	–
298.15 K, x2 = 0.3015	–	1.4217	–
298.15 K, x2 = 0.3991	–	1.4115	–
298.15 K, x2 = 0.502	–	1.4018	–
298.15 K, x2 = 0.5998	–	1.3903	–
298.15 K, x2 = 0.7012	–	1.3789	–
298.15 K, x2 = 0.7998	–	1.3649	–
298.15 K, x2 = 0.9001	–	1.3485	–
303.15 K, x2 = 0	–	1.4397	–
303.15 K, x2 = 0.0999	–	1.4327	–
303.15 K, x2 = 0.2012	–	1.4257	–
303.15 K, x2 = 0.3015	–	1.4171	–
303.15 K, x2 = 0.3991	–	1.4084	–
303.15 K, x2 = 0.502	–	1.3979	–
303.15 K, x2 = 0.5998	–	1.3881	–
303.15 K, x2 = 0.7012	–	1.377	–
303.15 K, x2 = 0.7998	–	1.3633	–
303.15 K, x2 = 0.9001	–	1.3467	–
308.15 K, x2 = 0	–	1.4356	–
308.15 K, x2 = 0.0999	–	1.4289	–
308.15 K, x2 = 0.2012	–	1.4212	–
308.15 K, x2 = 0.3015	–	1.4116	–
308.15 K, x2 = 0.3991	–	1.4031	–
308.15 K, x2 = 0.502	–	1.3953	–
308.15 K, x2 = 0.5998	–	1.3856	–
308.15 K, x2 = 0.7012	–	1.3729	–
308.15 K, x2 = 0.9001	–	1.3443	–
313.15 K, x2 = 0	–	1.4338	–
313.15 K, x2 = 0.0999	–	1.427	–
313.15 K, x2 = 0.2012	–	1.4211	–
313.15 K, x2 = 0.3015	–	1.4127	–
313.15 K, x2 = 0.3991	1285.19	1.4049	–
313.15 K, x2 = 0.502	1227.45	1.3943	–
313.15 K, x2 = 0.5998	1164.4	1.3839	–
313.15 K, x2 = 0.7012	1088.7	1.3722	–
313.15 K, x2 = 0.7998	1002.44	1.3592	–
313.15 K, x2 = 0.9001	898.23	–	–
318.15 K, x2 = 0	1440.03	1.4297	0.4849
318.15 K, x2 = 0.0999	1405.51	1.4201	0.4991
318.15 K, x2 = 0.2012	1366.88	1.4174	0.5108
318.15 K, x2 = 0.3015	1323.78	1.4093	0.5144
318.15 K, x2 = 0.3991	1276.2	1.4023	0.5142
318.15 K, x2 = 0.502	1218.91	1.3927	0.5108
318.15 K, x2 = 0.5998	1156.37	1.3817	0.4976
318.15 K, x2 = 0.7012	1081.29	1.3719	0.483
318.15 K, x2 = 0.7998	995.73	1.3576	0.4655
318.15 K, x2 = 0.9001	892.36	1.3406	0.4426
